In a melting point compilation (Tetko et al.; mined from patent text by program, amines drawn as free bases though some values may be those of a salt):

Row | melting point [°C] | SMILES
1 | 140 to 146 | Cc1nc(CO)cn1Cc1ccccc1
2 | 162 to 165 | Cc1ccn(-c2nc3ccccc3c(=O)[nH]2)n1
3 | 150 | NCCNCCN1CCC(c2cn(-c3ccc(F)cc3)c3ccc(Cl)cc23)CC1
4 | 87 to 88 | CCCC(CCC)(CCC(N)=S)C(CCC)(CCC)C(N)=S
5 | 95 to 103 | COc1cc(OC)c2c(c1)Oc1cc(Br)ccc1CC2=O
6 | 204 to 206 | COC(=O)c1cc(O)c2c(c1)c1ccccc1n2C
7 | 220 to 223 | C(=C\c1cc(/C=C/c2ccccc2OCc2ccccn2)[nH]n1)/c1ccc2[nH]ccc2c1
8 | 103 | CC(O)C(CCCc1ccccc1)n1ncc2c(=O)[nH]c(Cc3ccc(F)cc3)nc21 (configuration not stated)
9 | 120 to 122 | CN(C)C1CCCN(C(=O)c2ccc(N)cc2)c2ccccc21 (configuration not stated)
10 | 163 to 178 | CSc1ccc(-c2cc3ncnc(Nc4ccc5[nH]ccc5c4)c3s2)cc1
11 | 296 to 300 | CC(C)CCc1sc(NC(=O)c2cc([N+](=O)[O-])cn2C)nc1C(=O)O
12 | 148 to 150 | Cc1cc(NC(=O)C2=C(O)c3ccccc3N(c3ccccc3)C2)no1
13 | 89 to 90 | CC(C)(C)c1nc2cc(N3CCCC3)c(N=C=S)cc2s1
14 | 98 to 100 | C=CCc1cccc2c(=O)cc(-c3ccc(F)cc3)oc12
15 | 185 to 186 | Cc1nc(N2C[C@H](C)N(Cc3ccc(F)cc3)C2=O)sc1C(N)=O
16 | 109 to 110 | CCNc1cccnc1N(CC)CC1CCN(C(=O)c2ccc[nH]2)CC1
17 | 134 to 136 | CCOC(OCC)c1nc(-c2ccc(Cl)cc2)c(F)c(N=C2C=CC(=O)C=C2)c1Cl
18 | 136 to 138 | CC1(C)Cc2ccsc2C=[N+]1[O-]
19 | 160 to 161 | COc1ccc(C(=O)NCc2ccc(NC3=NCCN3)cc2)cc1
20 | 170 to 171 | C=C(C)OC(=O)N1c2ccncc2NC(=O)C1C (racemic)
21 | 300 | CC(=O)N1CCc2c(sc3nc(CN4C(=O)CCC4=O)c(Cl)c(-c4ccc(O)cc4)c23)C1
22 | 172 to 173 | O=C(NCC1CCCCC1)[C@@H]1CCCN(c2cccc3c2C(=O)N(Cc2ccncc2)C3=O)C1
23 | 146 to 147 | C=CCOc1ccccc1S(=O)(=O)NC(=O)Nc1nc(C)nc(OC)n1
24 | 66 to 67 | Cc1c(C)c2c(c(C)c1N)CC(C)(CN(C)C)O2 (configuration not stated)

Row | melting point [°C] | SMILES
25 | 267 | COc1cccc(Nc2nc(NC(=O)C(C)(C)C)nc3[nH]c4ccccc4c23)c1
26 | 91 to 93 | Nc1nc2ccccc2c2c1ncn2CCCCNC(=O)c1cccc2cccnc12
27 | 130 to 132 | CC1(C)CCC(Cc2ccc(Cl)cc2)C1(O)Cn1ccnc1 (configuration not stated)
28 | 156 to 159 | CCCS(=O)(=O)Oc1c(C(=O)c2ccc3c(c2C)C(N(C)C(=O)OC)CCS3(=O)=O)cnn1CC (configuration not stated)
29 | 86 to 88 | O=C(O)CCCOc1cccc2c1Cc1sc(SCCC(c3ccccc3)c3ccccc3)nc1-2
30 | > 320 | O=C(O)c1ccc(Cc2n[nH]c3c2c(=O)n(-c2ccccc2)c2ncccc32)cc1
31 | 214 to 218 | Cc1nc(-c2ccc(O)cc2)cc(-c2cccc(Br)c2)c1C#N
32 | 142 to 144 | COc1cc(CCNC(C)=O)c(C(=O)Cc2cc(OC)c(OC)cc2[N+](=O)[O-])cc1OC
33 | 90 to 93 | O=C(Nc1ccccc1)c1ccc([N+](=O)[O-])cc1
34 | 166 to 169 | Nc1nc(-n2cc(C(=O)O)c(=O)c3cc(F)c(NCC(O)CO)c(Cl)c32)c(F)cc1F (configuration not stated)
35 | 147 | O=c1c2ccccc2ncn1C1CCN(Cc2ccccc2)CC1
36 | 194 to 195 | C[C@@]1(NC(=O)c2cc3cccc4c3n2CCC4)C(=O)N(c2ccccc2F)c2ccccc21
37 | 124 to 125 | COc1ccc(-c2c(Cl)c(CNC(=O)c3cccnc3)nc3sc4c(c23)CCN(Cc2ccccc2)C4)cc1OC
38 | 176 | CCOC(=O)[C@](CC(=O)OC1CC(C)CCC1C(C)C)(NC(=O)OC(C)(C)C)C(N)=O (some centres not stated)
39 | 210 to 211 | COc1nc(-c2ccc(F)cc2C)c2c(n1)N(c1c(F)cccc1F)C(=O)NC2
40 | 225 to 226 | COc1ccc(CNC(=O)Nc2ccc(CN3C(=O)[C@H]4CCC[C@H]4N(C(=O)CCl)c4ccccc43)cc2)cc1 (relative stereo)
41 | 82 to 85 | CCN(CC)C(=O)Cc1ccc(C(=O)c2ccc(Cl)cc2)n1C
42 | 172 to 175 | N#Cc1cc(Cn2nnc(C(N)=O)c2N)ccc1Cl
43 | 133 to 134 | CCOC(=O)CN1C(=O)C2(COc3cc(F)c(F)cc32)c2c(Br)cccc21 (configuration not stated)
44 | 175 to 177 | CC(C)n1nnc(NC(=O)C(c2ccccc2)c2ccccc2)n1
45 | 128 to 130 | CCOC(=O)C1=NN(c2ccc(Cl)cc2)C(c2ccc(Cl)cc2)C1 (configuration not stated)
46 | 185 to 186 | CC1(C)CN(C2CCN(c3cc(Cl)cc(Cl)c3)C2=O)C1=O (configuration not stated)
47 | 90 to 92 | Cc1cc(C(C)(C)C)cc(C)c1S(=O)(=O)C[N+](=O)[O-]
48 | 79 to 80 | CC1(C(=O)NCCc2cccs2)CCCCC1

Row | melting point [°C] | SMILES
49 | 225 to 226 | CC(C)Cn1cnc2c(C(N)=O)nc3ccccc3c21
50 | 126 to 129 | CCc1nc2c(cnn2CC)c(NC2CCOCC2)c1CNC(=O)c1cccc(C(=O)NCc2ccc(F)c(-c3cccc(CN(C)CCN(C)C)c3)c2)c1
51 | 170 to 171 | NC(=O)C1CCc2cc(C3CCCCCC3)c(Cl)cc21 (configuration not stated)
52 | 115 to 116 | OCc1cnc(-c2ccc(Cl)cc2)o1
53 | 132 to 133 | COc1ccc(-c2cc(=O)n(Cc3ccc(F)cc3)nc2-c2ccc(OC)cc2)cc1
54 | 208 to 210 | COc1c(Cl)cccc1N1CN(C)C(=S)n2ncnc21
55 | 124 to 126 | C=CC(=O)NCC(=O)O
56 | 186 to 188 | CCN1c2ncccc2C(=O)N(C)c2ccc(-c3cnn(C(C)=O)c3)nc21
57 | 295 | COc1ccc(-c2[nH]nc3c2C(=O)c2c(NC(=O)CN4CCOCC4)cccc2-3)cc1
58 | 176 | CCN(Cc1cc(Br)ccc1NCc1ccccc1)c1ccc(C(=O)O)nn1
59 | 53 to 55 | CC(C)(C)OC(=O)[C@@H]1CCC(=O)N1C(=O)OC(C)(C)C
60 | 59 | COC(=O)c1ccc(Cl)c(CN2CCN(C)C2=O)c1Cl
61 | 85 to 86 | CCOC(=O)c1cc2ccc3sc4ccccc4c3c2n1C
62 | 260 to 261 | CC1(C)CCC(C)(C)c2cc(C(=O)C=Cc3ccc(C(=O)O)c(O)c3)ccc21
63 | 69 | C[C@@H]1O[C@@]1(Cn1cncn1)c1cc(F)ccc1F
64 | 184 | O=C(c1ccc(O)cc1)N1CCN(CC(O)Cn2c3ccccc3c3ccccc32)CC1 (configuration not stated)
65 | 134 to 135 | CCCCn1c(=O)c2c(ncn2S(=O)(=O)c2ccc(OC)c(OC)c2)n(CCCC)c1=O
66 | 126 to 127 | COc1ccc(C=CC(=O)c2ccc(OCC(O)CN3CCN(c4ccccc4)CC3)cc2)cc1OC (configuration not stated)
67 | 85.5 to 89 | CCN1C(=O)CCC2(CCC(=O)c3ccccc32)C1=O (configuration not stated)
68 | 89 | Cc1ccc(S(=O)(=O)NC(C)(C)C)s1
69 | 245 to 247 | COc1cc2ncc(C#N)c(Nc3c(C)cccc3O)c2cc1OC
70 | 135 to 137 | O=C1C2CCCC2=Nc2ccccc2N1Cc1ccccc1F (configuration not stated)
71 | 148 to 151 | O=C(c1ccccc1F)N1C(=O)c2ccccc2S1(=O)=O
72 | 200 | COc1cccc(OCC2CC2)c1-c1cc(C(=O)C2(C(=O)O)C3CC4CC(C3)CC2C4)nn1-c1ccnc2cc(Cl)ccc12 (configuration not stated)

Row | melting point [°C] | SMILES
73 | 44 to 45 | N#CC1CCn2cccc21 (configuration not stated)
74 | 210 to 212 | COc1ccc(-c2cc(N3CCCCC3)c(C#N)c3c2-c2ccccc2C3=O)cc1
75 | 207 to 208 | CCCn1c(CCOC)nc2c(N)nc3cc(OC4CCN(C(N)=O)CC4)ccc3c21
76 | 156 | CS(=O)c1ccc(-c2nn(Cc3ccc(F)cc3F)c(=O)cc2-c2ccc(Cl)cc2)cc1 (configuration not stated)
77 | 138 to 139 | COC(=O)c1ccc(NC(=O)c2ccccc2Cc2ccccc2)cc1
78 | 129 | COc1ccc([N+](=O)[O-])c(NC(C)=O)c1
79 | 35 to 37 | CCCCOC(=O)C(=O)Nc1ccccn1
80 | 286 to 290 | CN1CC(=O)OC2CCN(C(=O)c3ccc(NC(=O)c4ccccc4Cl)cc3)c3ccccc3C21 (configuration not stated)
81 | 148 to 150 | COCCOc1nc2cc(-c3ccc(Cl)cc3)nnc2c2ccccc12
82 | 180 to 185 | CC(=O)c1ccc(-c2ccc(C(=O)NCCCCN3CCC(c4ccc5c(c4O)CCCC5)CC3)cc2)cc1
83 | 140 to 142 | CCS(=O)(=O)N[C@H](C(=O)NCCc1ccc(OCc2ccccc2)c(OC)c1)C(C)C
84 | 183 to 185 | Cc1ncncc1C(=O)Nc1ccc(-n2nc(C(F)(F)F)c(Cl)c2C2CC2)c(F)c1
85 | 121 | Cc1ccc(S(=O)(=O)N2CCNCCOCCOCCNCCN(S(=O)(=O)c3ccc(C)cc3)CC2)cc1
86 | 125 to 130 | Oc1ccc(Oc2cccc(Cl)n2)cc1
87 | 115 | COC(=O)c1ccc(F)c2c1CC(N(CCCCc1c[nH]c3ccc(F)cc13)C1CCC1)CO2 (configuration not stated)
88 | 100 to 102 | CCn1ncc2c(Cl)c(C#N)cnc21
89 | 244 to 245 | Nc1ncnc2c1nnn2C1CCC(O)C1O (configuration not stated)
90 | 177 to 178 | O=C(NCCO)c1cccc(-c2cccc3nn(Cc4ccc(F)c(Cl)c4)cc23)c1
91 | 207 to 210 | Cc1ccc(N2CCNCC2)c2c1CC[C@@H](NC(=O)c1ccc(N3CCOCC3)cc1)C2
92 | 123 to 125 | O=C1Nc2cccnc2N(C(=O)N2CCCC(CCCN3CCCCC3)C2)c2ccccc21 (configuration not stated)
93 | 124 to 126 | O=S(=O)(c1ccc2ccccc2c1)N1C[C@H](O)C[C@H]1COCc1ccccc1

Row | SMILES | melting point [°C]
94 | CSC(C)=NOC(=O)NCSN(C(C)(C)C)P1(=O)OCC(C)(C)CO1 | 134
95 | Cc1nnc2n1-c1sc(C#CCn3c(=O)c4c(ncn4C)n(C)c3=O)cc1C(c1ccccc1Cl)=NC2 | 277 to 280
96 | O=C(CCNC(=O)[C@H](Cc1ccc(-c2ccccc2)cc1)NCP(=O)(Oc1ccccc1)Oc1ccccc1)OCc1ccccc1 | 83 to 84
97 | N#Cc1ncn2c1[C@@H]1CCN1C(=O)c1c(Br)cccc1-2 | 133 to 136
